# Results reported in patent publication US20090176839A1, “FORMULATIONS OF 3-(6-(1-(2,2-DIFLUOROBENZO[D][1,3]DIOXOL-5-YL) CYCLOPROPANECARBOXAMIDO)-3-METHYLPYRIDIN-2-YL)BENZOIC ACID” (priority 2007, published 2009).
# Where two headings read alike, the source gives them in different places.
# Legend:
# [1] = Toxicokinetics in acute oral toxicity study in rats; type: in vivo
# Description: Compound 1 was also well absorbed in rats with time to reach maximum plasma concentrations(tmax) ranging from 4.0 to 24.0 hr.
# [2] = Toxicokinetics in 14-day oral toxicity study in rats; details: rat, in vivo, 600 mg/kg/day
# Description: There were no major differences noted in TK parameters between males and females, or when comparing study Day 1 to study Day 14.
# [3] = Stability of 6 mg/mL aqueous methylcellulose-polysorbate 80 suspension (HPLC, XRPD, NMR); type: physicochemical; details: for Peak purity %: 6 mg/mL aqueous methylcellulose-polysorbate 80 suspension, room temperature
# Method: Methylcellulose (0.5 g) was combined with 99.0 g of purified water in a beaker and stirred in a 60-70° C. water bath for 30′-1 hr. The solution was stirred in a 0° C. ice/water bath for another 30′ or until clear. Polysorbate 80 (0.5 g) was added and stirring at room temperature followed for 30′-1 hr or until a clear solution was obtained.
# The desired amount of 0.5% methylcellulose and 0.5% polysorbate 80 stock solution for making a 6 mg/mL based on free base (6.48 mg/mL based on HCl salt) was transferred into the vial and sonicated for 20 minutes with alternate stirring for 1-2 minutes. The solution was homogenized for approximately 1-2 minutes.
# As with 0.5% methylcellulose formulation prepared previously, the HCl salt was quickly converted to Compound 1 in Form I at T(0) resulting in a crystalline free form suspension as shown by XRPD (FIG. 10) and confirmed by ^1H NMR analysis (FIGS. 11-13). Additionally, the solid form in suspension at T(0) was recovered an subjected to HPLC analysis: […]
# mice = experiment: Acute oral toxicity study in mice; details: mice; single oral doses 500, 1000 or 2000 mg/kg
# Method: (§1) The intended clinical route of administration is oral, thus oral toxicity studies were done in mice, rats and dogs. […] Effects of repeat oral dosing were assessed in rats and dogs in preliminary 7-day toxicity studies followed by a 14-day GLP1 toxicity studies.
# [4] = Acute oral toxicity study in mice; details: mouse, in vivo, po
# Method: as §1
# in vivo = details: dog, po
# Method: (§2) Repeat-dose oral toxicity studies of 7- and 14-days duration have been conducted in rats (up to 600 mg/kg/day) and dogs (up to 200 mg/kg/day).
# [5] = Single oral pharmacokinetics of the free form in suspension in male rats; type: in vivo, male Sprague Dawley rats; details: for AUC(0-inf): free form suspension, mean (SD)
# Method: The pharmacokinetics of Compound 1 were assessed in the same species used in the toxicology studies: CD-1 mice, Sprague Dawley rats and beagle dogs. The pharmacokinetics of Compound 1 were also assessed in cynomolgus monkeys.
# Non-validated research grade assays were used for these analyses. All pharmacokinetic studies were conducted using fed animals unless otherwise specified.
# At 600 mg/kg, the increase in systemic exposure was less than proportional to the increase in dose. Bioavailability ranged from 47% to ˜100% across the 1 to 600 mg/kg oral dose range in rats, indicating excellent absorption of the compound.
# [6] = molecular target: T1, Thromboxane A2 (TXA2) receptor (TP receptor) (Homo sapiens, UniProt P21731); experiment: Radiolabel binding counter screen (MDS Pharma Services)
# T1 construct: MDS Pharma Services MDSPS PT#: 1083321
# T1 sequence (P21731 1-343): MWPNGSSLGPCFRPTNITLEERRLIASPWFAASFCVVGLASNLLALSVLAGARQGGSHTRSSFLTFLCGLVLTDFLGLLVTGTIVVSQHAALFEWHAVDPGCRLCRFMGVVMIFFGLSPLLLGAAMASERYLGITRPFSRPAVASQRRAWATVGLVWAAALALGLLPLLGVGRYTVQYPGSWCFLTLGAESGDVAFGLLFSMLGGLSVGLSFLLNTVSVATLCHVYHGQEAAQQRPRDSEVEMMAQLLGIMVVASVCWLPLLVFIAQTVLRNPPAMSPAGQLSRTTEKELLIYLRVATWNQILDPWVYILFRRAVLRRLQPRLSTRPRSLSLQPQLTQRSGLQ
# Description: Compound 1 was counter screened against a broad panel of enzymes and receptors using radiolabel binding studies (see MDS Pharma Services, LeadProfiling and SpectrumScreen, MDSPS PT#: 1083321).
# rats = details: rat, in vivo, 14 days
# Method: as §2
# [7] = Sprague Dawley, rat, plasma, po, male rats, free form, 1 mg/kg
# [8] = Sprague Dawley, rat, plasma, po, male rats, free form, 30 mg/kg
# [9] = Sprague Dawley, rat, plasma, po, male rats, free form, 150 mg/kg
# [10] = Sprague Dawley, rat, plasma, po, male rats, free form, 300 mg/kg
# [11] = Sprague Dawley, rat, plasma, po, male rats, free form, 600 mg/kg
# [12] = male rats, free form, 150 mg/kg
# [13] = male rats, free form, 300 mg/kg
# [14] = male rats, free form, 600 mg/kg
smiles,measurement,setting,value
"Cc1ccc(NC(=O)C2(c3ccc4c(c3)OC(F)(F)O4)CC2)nc1-c1cccc(C(=O)O)c1 [Compound 1, 3-(6-(1-(2,2-difluorobenzo[d][1,3]dioxol-5-yl)cyclopropanecarboxamido)-3-methylpyridin-2-yl)benzoic acid]","AUC0-24hr values, females vs. males",[1]; 500 mg/kg dose group,more than 2 fold
same,Cmax,"[1]; Sprague Dawley, rat, plasma, po, 2000 mg/kg, Male",306 µg/mL
same,AUC(0-t),"[1]; Sprague Dawley, rat, plasma, po, 2000 mg/kg, Male, read-out: AUC0-24 h",6110 µg·h/mL
same,Tmax,"[1]; Sprague Dawley, rat, plasma, po, 2000 mg/kg, Male, read-out: tmax",24 h
same,Tmax,"[1]; both sexes, rat, plasma, po, 500 to 2000 mg/kg, read-out: time to reach maximum plasma concentrations (tmax)",4 to 24 h
same,half-life,"[1]; both sexes, rat, plasma, po, could not be calculated at 1000 and 2000 mg/kg, read-out: elimination half-life (t1/2)",9.4 to 10.8 h
same,Cmax,"[1]; male, rat, plasma, po, males at 500 mg/kg",135 µg/mL
same,AUC(0-t),"[1]; male, rat, plasma, po, males at 500 mg/kg, read-out: AUC0-24hr",1390 µg·h/mL
same,Cmax,"[1]; male, rat, plasma, po, males at 2000 mg/kg",306 µg/mL
same,Cmax,"[1]; rat, plasma, po, 2000 mg/kg, Female",305 µg/mL
same,AUC(0-t),"[1]; rat, plasma, po, 2000 mg/kg, Female, read-out: AUC0-24 h",6750 µg·h/mL
same,Tmax,"[1]; rat, plasma, po, 2000 mg/kg, Female, read-out: tmax",10 h
same,AUC(0-t),"[2]; both sexes, rats, at the NOAEL (600 mg/kg/day), read-out: average AUC0-24hr",3950 µg·h/mL
same,Cmax,"[2]; both sexes, rats, at the NOAEL (600 mg/kg/day), read-out: average Cmax",222 µg/mL
same,Tmax,"[2]; female, Sprague Dawley, Study Day 1, Female",4 h
same,AUC(0-t),"[2]; female, Sprague Dawley, Study Day 1, Female, read-out: AUC0-24 hr",4430 µg·h/mL
same,Cmax,"[2]; female, Sprague Dawley, Study Day 1, Female, read-out: Cmax",273 µg/mL
same,Tmax,"[2]; female, Sprague Dawley, Study Day 14, Female",10 h
same,AUC(0-t),"[2]; female, Sprague Dawley, Study Day 14, Female, read-out: AUC0-24 hr",5500 µg·h/mL
same,Cmax,"[2]; female, Sprague Dawley, Study Day 14, Female, read-out: Cmax",272 µg/mL
same,Tmax,"[2]; male, Sprague Dawley, Study Day 1, Male",10 h
same,AUC(0-t),"[2]; male, Sprague Dawley, Study Day 1, Male, read-out: AUC0-24 hr",2660 µg·h/mL
same,Cmax,"[2]; male, Sprague Dawley, Study Day 1, Male, read-out: Cmax",164 µg/mL
same,Tmax,"[2]; male, Sprague Dawley, Study Day 14, Male",10 h
same,AUC(0-t),"[2]; male, Sprague Dawley, Study Day 14, Male, read-out: AUC0-24 hr",3220 µg·h/mL
same,Cmax,"[2]; male, Sprague Dawley, Study Day 14, Male, read-out: Cmax",181 µg/mL
same,degradation peaks by HPLC,[3],No major degradation peaks were detected
same,Peak purity %,[3]; T(0),98.81%
same,Peak purity %,[3]; T(24 h),98.24%
same,"chemically stable, time","[3]; 24 h, 6 mg/mL",at least 24 hrs
same,organ weights and gross observations at necropsy,mice,no effects on organ weights and no gross observations
same,MTD at 14 days,[4],> 2000 mg/kg
same,NOAEL at 14 days,[4],> 2000 mg/kg
same,NOAEL at 14 days,in vivo,200 mg/kg/day
same,concentration at 48 hr,"[5]; Sprague Dawley, rat, plasma, oral, male rats, free form, 1 mg/kg, read-out: Clast",0.0288 µg/mL
same,concentration at 48 h,"[5]; Sprague Dawley, rat, plasma, oral, male rats, free form, 30 mg/kg, read-out: Clast",0.044 µg/mL
same,concentration at 72 hr,"[5]; Sprague Dawley, rat, plasma, oral, male rats, free form, 150 mg/kg, read-out: Clast",0.0516 µg/mL
same,concentration at 48 hr,"[5]; Sprague Dawley, rat, plasma, oral, male rats, free form, 300 mg/kg, read-out: Clast",1.12 µg/mL
same,concentration at 72 hr,"[5]; Sprague Dawley, rat, plasma, oral, male rats, free form, 600 mg/kg, read-out: Clast",1.24 µg/mL
same,AUC(0-inf),"[5]; Sprague Dawley, rat, plasma, po, male rats, nominal dose 1 mg/kg",13.7 µg·h/mL
same,AUC(0-inf),"[5]; Sprague Dawley, rat, plasma, po, male rats, nominal dose 30 mg/kg",369 µg·h/mL
same,AUC(0-inf),"[5]; Sprague Dawley, rat, plasma, po, male rats, nominal dose 150 mg/kg",728 µg·h/mL
same,AUC(0-inf),"[5]; Sprague Dawley, rat, plasma, po, male rats, nominal dose 300 mg/kg",2530 µg·h/mL
same,AUC(0-inf),"[5]; Sprague Dawley, rat, plasma, po, male rats, nominal dose 600 mg/kg",3080 µg·h/mL
same,Cmax,[5]; [7],1.1 µg/mL
same,Tmax,[5]; [7],3 h
same,Cmax,[5]; [8],28.2 µg/mL
same,Tmax,[5]; [8],4 h
same,Cmax,[5]; [9],54.7 µg/mL
same,Tmax,[5]; [9],4.67 h
same,Cmax,[5]; [10],181 µg/mL
same,Tmax,[5]; [10],3.33 h
same,Cmax,[5]; [11],203 µg/mL
same,Tmax,[5]; [11],4.67 h
same,F,"[5]; male rats, free form, 1 mg/kg",>100%
same,tlast,"[5]; male rats, free form, 1 mg/kg",48 h
same,F,"[5]; male rats, free form, 30 mg/kg",>100%
same,tlast,"[5]; male rats, free form, 30 mg/kg",48 h
same,F,[5]; [12],47%
same,tlast,[5]; [12],72 h
same,F,[5]; [13],81%
same,tlast,[5]; [13],48 h
same,F,[5]; [14],50%
same,tlast,[5]; [14],72 h
same,half-life,"[5]; male, Sprague Dawley, rat, plasma, po, 1 mg/kg, male rats, free form, 1 mg/kg, read-out: t1/2 (converted)",7.65 h
same,half-life,"[5]; male, Sprague Dawley, rat, plasma, po, 30 mg/kg, male rats, free form, 30 mg/kg, read-out: t1/2 (converted)",6.83 h
same,half-life,"[5]; male, Sprague Dawley, rat, plasma, po, 150 mg/kg, male rats, free form, 150 mg/kg, read-out: t1/2 (converted)",8.07 h
same,half-life,"[5]; male, Sprague Dawley, rat, plasma, po, 300 mg/kg, male rats, free form, 300 mg/kg, read-out: t1/2 (converted)",5.86 h
same,half-life,"[5]; male, Sprague Dawley, rat, plasma, po, 600 mg/kg, male rats, free form, 600 mg/kg, read-out: t1/2 (converted)",7.49 h
same,half-life,"[5]; male, Sprague Dawley, rat, plasma, po, administered orally to rats, read-out: half-life",5 to 9 h
same,half-life,"[5]; male, Sprague Dawley, rat, plasma, po, male rats, 1 to 600 mg/kg oral dose range, read-out: terminal half-life",5.9 to 8.1 h
same,bioavailability,"[5]; male, Sprague Dawley, rat, plasma, rats, across the 1 to 600 mg/kg oral dose range",47 to 100%
same,Tmax,"[5]; male, Sprague Dawley, rat, plasma, rats, across the oral dose range, fed conditions",3 to 4.7 h
same,clearance,[5]; rat,very low clearance
same,Ki,[6],~3 µM
same,human equivalent dose (based on body surface area),rats,at least 95 mg/kg
same,human total daily dose equivalent,rats,approximately 5700 mg
same,light microscopy of more than 40 organs and tissues,rats,no significant Compound 1 related findings
same,dosage tolerated without toxic effects,rats; po,up to 600 mg/kg/day
